Test results: US20170246241A1, “Methods for the Selective Treatment of Tumors by Calcium-Mediated Induction of Apoptosis” (priority 2003, published 2017)
“Also recorded” adds a separate entry of the source.

Assays:
[1] = test system: MEL-STR cells; experiment: Annexin V-FITC apoptosis detection by flow cytometry (apoptotic+dead cells); assay type: cell-based, human; settings: for fold more potent at inducing apoptosis in STR compared to STVP cells: 5 hour exposure (FIGS. 13, 14); for greater sensitivity / potency advantage, malignant versus non-malignant cells, induction of apoptosis: 5 hrs exposure (FIG. 3, FIG. 4)
Method: FIG. 2. […] Malignant (MEL-STR) and non-malignant (MEL-STVP) cells used in these experiments were derived originally from normal human foreskin melanocytes obtained from the Weisberg lab. These original surgical samples were genetically modified to grow continuously in vitro and are non-tumor-forming in a nude mouse model. These same cells were genetically modified further to generate the tumor-forming cell line and were propagated.
Apoptotic+dead cells were assayed in this experiment and those that follow below on a Becton-Dickenson flow cytometer using an Annexin V-FITC Apoptosis Detection Kit as described by the manufacturer.
Drug exposure time was 5 hrs. Viable and live cells were measured by FACS and by Coulter counting, respectively. […] Panels A & B: solid circles and lines, STR cells; open circles and broken lines, STVP cells; Panel B, inverse logit/log plot of the data from Panel A. Solid gray circles in Panel B (extrapolated minimum values on abscissa) were used to plot the maximum values shown in Panel A.

[2] = test system: MEL-STR cells; experiment: Cell morphology (FACS light scatter, microscopic examination); assay type: cell-based, human
Excerpt: Calmodulin is known to be required for traverse of late G1, G2, and specific periods during mitosis and coincides with periods of elevated […] levels.
The involvement of a form of PKC in the enzyme tetrad that is involved in Ca^2+-dependent, cell cycle phase transitions is given in FIG. 4. […] Four different means for assaying the effect of these two chemicals are shown.

[3] = test system: certain cancers; settings: in vivo; cited from earlier work
[4] = test system: MEL-STVP cells; experiment: Annexin V-FITC apoptosis detection by flow cytometry (apoptotic+dead cells); assay type: cell-based, human
Excerpt: FIG. 2. […] Malignant (MEL-STR) and non-malignant (MEL-STVP) cells used in these experiments were derived originally from normal human foreskin melanocytes obtained from the Weisberg lab. These original surgical samples were genetically modified to grow continuously in vitro and are non-tumor-forming in a nude mouse model. These same cells were genetically modified further to generate the tumor-forming cell line and were propagated. Thus, this represents an ideal pair of highly similar cells by which drug specificity between normal and malignant cells can be assessed.
Transformed MEL-STR cells were incubated over a period of 24 hrs in the presence of a previously determined ineffective concentration (10 μm) of the CAM antagonist W-7 or the drug vehicle DMSO (1%) as controls and a concentration of 60 μm W-7 as illustrated. Apoptotic+dead cells were assayed in this experiment and those that follow below on a Becton-Dickenson flow cytometer using an Annexin V-FITC Apoptosis Detection Kit as described by the manufacturer.
Drug exposure time was 5 hrs. Viable and live cells were measured by FACS and by Coulter counting, respectively. Dose-dependent decreases in viable cells were inversely proportional to the number of Annexin+Propidium Iodide positive staining cells (data not shown) in these and the following experiments. […]

[5] = test system: STVP cells; experiment: Cell density / growth inhibition by Coulter counting; assay type: cell-based, human; settings: PP2B-AIP alone, wide concentration range, 24 hours
Method: Closed circles, solid lines, PP2B-AIP only; open circles, dashed lines, PP2B+C6C (15 uM). Cell density was quantified by Coulter counting which measures only cells with Panel A, STR cells; Panel B, STVP cells. Closed circles, solid lines, PP2B-AIP only; open circles, dashed lines, PP2B+C6C (15 uM). Cell density was quantified by Coulter counting which measures only cells with ionically intact plasma membranes (presumed live cells). Drug exposure time was 24 hours. Cell density values are expressed as a percentage of maximum for no drug or C6C only controls. Solid black lines in Panels A & B and dashed line in Panel B represent the average of all values across the PP2B-AIP concentration range. The ability of PKC agonists on apoptosis induction is potentiated by antagonists of Calmodulin-dependent protein phosphatase (a.k.a. Calcineurin or PP2B) and these effects occur at lower drug concentrations in transformed cells than in untransformed cells. […]

[6] = test system: STR cells; settings: PP2B-AIP alone, wide concentration range, 24 hours
Method: Panel B, cell density measured by Coulter counting; Panel C, morphological changes measured by changes in forward light scatter as measured by FACS; Panel D, percentage of spherical cells was determined on live cell populations by counting approximately 500 cells in a representative field using an inverted phase contrast microscope.
Closed circles, solid lines, PP2B-AIP only; open circles, dashed lines, PP2B+C6C (15 uM). Cell density was quantified by Coulter counting which measures only cells with Panel A, STR cells; Panel B, STVP cells. Closed circles, solid lines, PP2B-AIP only; open circles, dashed lines, PP2B+C6C (15 uM). Cell density was quantified by Coulter counting which measures only cells with ionically intact plasma membranes (presumed live cells). Drug exposure time was 24 hours. Cell density values are expressed as a percentage of maximum for no drug or C6C only controls. Solid black lines in Panels A & B and dashed line in Panel B represent the average of all values across the PP2B-AIP concentration range ionically intact plasma membranes (presumed live cells). Drug exposure time was 24 hours. Cell density values are expressed as a percentage of maximum for no drug or C6C only controls. Solid black lines in Panels A & B and dashed line in Panel B represent the average of all values across the PP2B-AIP concentration range.

[7] = test system: MEL-STR cells; experiment: Annexin V-FITC apoptosis detection by flow cytometry (apoptotic+dead cells); assay type: cell-based, human; settings: 60 μm W-7, time course over 24 hrs
[8] = PP2B-AIP alone, over the concentration range tested

## CCCCCCCCCCCCCC(=O)O[C@@H]1[C@@H](C)[C@@]2(O)[C@@H](C=C(CO)C[C@]3(O)C(=O)C(C)=C[C@@H]23)[C@@H]2C(C)(C)[C@]12OC(C)=O [PMA, Phorbol-12-Myristate-13-Acetate]
[1]; PMA combined with submaximal W-7
  potentiation of induction of apoptosis in combination with W-7 (Annexin assay): shows potentiation; also recorded: synergy
[2]; PMA combined with W-7, light scatter by FACS and microscopic examination
  potentiation of cell shape change in combination with W-7: Potentiation is also confirmed; also recorded: synergistic drug effects

## CCCCCCCCCCCCC/C=C/[C@@H](O)[C@H](CO)NC(=O)CCCCC [C6C, N-Hexanoyl-D-erythro-Sphingosine]
[1]
  fold more potent at inducing apoptosis in STR compared to STVP cells: ca. 6 fold
[1]; C6C combined with W-7, 5 hr exposure
  potentiation of induction of apoptosis in combination with W-7: potentiated
[1]; MEL-STR vs MEL-STVP
  greater sensitivity / potency advantage, malignant versus non-malignant cells, induction of apoptosis: ~10 fold

## C=C1/C(=C\C=C2/CCC[C@]3(C)[C@@H]([C@H](C)CCCC(C)(C)O)CC[C@@H]23)C[C@@H](O)C[C@@H]1O [Calcitriol]
[3]
  reduction of the incidence of certain cancers: 17-20%

## Ac-RRRRRRRRRRRGGGRMAPPRRDAMPSDA-NH2 [PP2B-AIP]
[1]; [8]
  induction of apoptosis, drug alone: no visible induction of apoptosis
[1]; PP2B-AIP with C6C, 5 hr. exposure
  maximum of cells killed: ≤ 50%
[1]; combined with C6C
  potentiation of apoptosis in combination with C6C: potentiation is seen only in the transformed MEL-STR cell line
[4]; [8]
  induction of apoptosis, drug alone: no visible induction of apoptosis
[4]; combined with C6C
  potentiation of apoptosis in combination with C6C: not in untransformed MEL-STVP cells
[5]
  effect on growth, drug alone: no discernible effect
[6]
  effect on growth, drug alone: no discernible effect

## Cl.NCCCCCCNS(=O)(=O)c1cccc2c(Cl)cccc12 [W-7, N-(6-aminohexyl)-5-chloro-1-naphthalenesulfonamide hydrochloride]
[1]; 10 μm, previously determined
  induction of apoptosis at 10 μm: ineffective
[1]
  fold more potent at inducing apoptosis in STR compared to STVP cells: ca. 5 fold
[1]; MEL-STR vs MEL-STVP, 5 hr. exposure, dose response (FIG. 3)
  sensitivity to induction of apoptosis, malignant versus non-malignant cells: more than 10 times
[1]; MEL-STR vs MEL-STVP
  greater sensitivity / potency advantage, malignant versus non-malignant cells, induction of apoptosis: 10 fold
[2]; 60 μm W-7, microscopically or by FACS light scatter
  time at which morphological rounding of cells can be observed: 1 hr
[7]
  population scoring positively for apoptosis: > 90%
  time at which induction of apoptosis can be seen: 3 h

## Oc1ccc(Nc2nc(-c3ccc(Cl)cc3)cs2)cc1 [SKi, 4-[[4-(4-Chlorophenyl)-1,3-thiazol-2-yl]amino]phenol]
[1]; SKi combined with W-7
  potentiation of induction of apoptosis in combination with W-7: synergy
